Data published in patent US11013235B2 (priority 2015, dated 2021).
Like-named read-outs stand apart in the source and are kept apart here.

What was measured:
Format in all cases: in vivo
[1] = test system: Candidatus 'Liberibacter asiaticus'; conditions: spraying every 15 days, 12 months after treatment, Citrus sinensis with HLB
Phytophthora parasitica = assay: Control of Phytophthora parasitica disease in tobacco (Pp-Nt); conditions: 1 μM spraying every 24 hours for one week, water control 91
Method: (§1) In order to compare the effect of the compounds of formula I to V on the control of diseases in different plants, experiments were conducted in tobacco, tomato and Arabidopsis thaliana plants inoculated with Phytophthora parasitica, Rhizoctonia solani, Alternaria solani, Nocardia sp and Botrytis cinerea, respectively. The compounds were applied by spraying, at a concentration of 1 μM, every 24 hours for one week. The plant mortality rate was determined for the disease produced by Phytophthora parasitica, Rhizoctonia solani and Nocardia sp, while the percentage of leaves with symptoms was determined for the infection by Alternaria solani. In the case of plants affected by Botrytis cinerea, the lesion diameter was measured. […] Each treatment included fifty plants. As control, plants treated with water were studied. The plants of each treatment were previously inoculated with the indicated pathogens, according to different inoculation protocols (Frontiers in Plant Science 3: 268, 1-6, 2012), and later they were treated with the compounds.

Rhizoctonia solani [2] = assay: Control of Rhizoctonia solani disease in tobacco (Rs-Nt); conditions: 1 μM spraying every 24 hours for one week, water control 87
Method: as §1

Nocardia sp = assay: Control of Nocardia sp disease in tobacco (N-Nt); conditions: 1 μM spraying every 24 hours for one week, water control 58
Method: as §1

Rhizoctonia solani [3] = assay: Control of Rhizoctonia solani disease in tomato (Rs-SI); conditions: 1 μM spraying every 24 hours for one week, water control 96
Method: as §1

Alternaria solani = assay: Control of Alternaria solani disease in tomato (As-SI); conditions: 1 μM spraying every 24 hours for one week, water control 68
Method: as §1

Botrytis cinerea [4] = assay: Control of Botrytis cinerea disease in Arabidopsis (Bc-At); conditions: 1 μM spraying every 24 hours for one week, water control 8.7
Method: as §1

Botrytis cinerea [5] = assay: Control of Botrytis cinerea disease in tobacco (Bc-Nt); conditions: 1 μM spraying every 24 hours for one week, water control 6.7
Method: as §1

Botrytis cinerea [6] = assay: Control of Botrytis cinerea disease in tomato (Bc-SI); conditions: 1 μM spraying every 24 hours for one week, water control 7.4
Method: as §1

Radopholus similis = assay: Nematode control, nodules per plant: Radopholus similis; conditions: 1 μM foliar application every 5 days, evaluation 35 days after, control 45
Method: (§2) The solutions of the compounds were prepared in ethanol and diluted in water, up to a concentration of 1 μM for a foliar application. Applications were conducted every 5 days, spraying only the leafs with each compound. Ten plants were used for each treatment and the final evaluation was performed 35 days after, by quantifying the number of nodules per plant.

Meloidogyne incognita = assay: Nematode control, nodules per plant: Meloidogyne incognita; conditions: 1 μM foliar application every 5 days, evaluation 35 days after, control 34
Method: as §2

Pratylenchus coffeae = assay: Nematode control, nodules per plant: Pratylenchus coffeae; conditions: 1 μM foliar application every 5 days, evaluation 35 days after, control 42
Method: as §2

Row | Compound | Titers of the bacterium ([1]; 0.001 μM) | Titers of the bacterium ([1]; 0.01 μM) | Titers of the bacterium ([1]; 1 μM) | Titers of the bacterium ([1]; 5 μM) | Titers of the bacterium ([1]; 10 μM) | Pp-Nt: percentage of mortality (Phytophthora parasitica) | Rs-Nt: percentage of mortality (Rhizoctonia solani [2]) | N-Nt: percentage of mortality (Nocardia sp) | Rs-SI: percentage of mortality (Rhizoctonia solani [3]) | As-SI: percentage of leaves with the disease symptoms (Alternaria solani) | Bc-At: mean of the diameter of the lesion (Botrytis cinerea [4]) | Bc-Nt: mean of the diameter of the lesion (Botrytis cinerea [5]) | Bc-SI: mean of the diameter of the lesion (Botrytis cinerea [6]) | Rs: number of nodules per plant (Radopholus similis) | Mi: number of nodules per plant (Meloidogyne incognita) | Pc: number of nodules per plant (Pratylenchus coffeae)
1 | Cc1nc(N2CCN(C3CCCC3)CC2)ncc1C(=O)N1CC2CC(O)C(O)CC2C1 (centres unmarked) [IIIH, 2-{[2-(4-cyclopentylpiperazin-1-yl)-4-methylpyrimidin-5-yl]carbonyl)-octahydro-1H-isoindole-5,6-diol] | 456 copies per reaction | 15 copies per reaction | 6 copies per reaction | 56 copies per reaction | 3657 copies per reaction | 1% | 2% | 1% | 3% | 1% | 0.7 mm | 0.9 mm | 1.2 mm | 14 | 2 | 16
2 | O=C(Cc1cc2c(oc1=O)C=CC1C(c3ccc4ccccc4c3)=COC21)NCC(O)CO (centres unmarked) [IIE, N-(2,3-dihydroxypropyl)-2-[5-(naphthalen-2-yl)-11-oxo-3,10-dioxatricyclo[7.4.0.0^{2,6}]trideca-1(9),4,7,12-tetraen-12-yl]acetamide] | 985 copies per reaction | 1 copies per reaction | 5 copies per reaction | 98 copies per reaction | 2547 copies per reaction | 0% | 0% | 0% | 0% | 7% | 1.2 mm | 0.3 mm | 0.8 mm | 0 | 0 | 0
3 | O=C(CC1COc2ccc(C(=O)NC3CCCC3)cc2N1)NC(CO)CO (centres unmarked) [VG, N-cyclopentyl-3-{[(1,3-dihydroxypropan-2-yl)carbamoyl]methyl}-3,4-dihydro-2H-1,4-benzoxazine-6-carboxamide] | 657 copies per reaction | 8 copies per reaction | 0 copies per reaction | 67 copies per reaction | 3654 copies per reaction | 1% | 2% | 1% | 3% | 1% | 2.4 mm | 1.5 mm | 0.8 mm | 1 | 2 | 1
4 | O=C(CC1COc2ccc(C(=O)Nn3cccc3)cc2N1)NC(CO)CO (centres unmarked) [VK, 3-{[(1,3-dihydroxypropan-2-yl)carbamoyl]methyl}-N-(1H-pyrrol-1-yl)-3,4-dihydro-2H-1,4-benzoxazine-6-carboxamide] | 435 copies per reaction | 0 copies per reaction | 0 copies per reaction | 45 copies per reaction | 2547 copies per reaction | 0% | 0% | 0% | 0% | 7% | 1.1 mm | 2.0 mm | 1.6 mm | 0 | 0 | 0
5 | CN1c2cc(C(=O)NC3CCCC3)ccc2OCC1CC(=O)NC(CO)CO (centres unmarked) [VH, N-cyclopentyl-3-{[(1,3-dihydroxypropan-2-yl)carbamoyl]methyl}-4-methyl-3,4-dihydro-2H-1,4-benzoxazine-6-carboxamide] | 658 copies per reaction | 4 copies per reaction | 0 copies per reaction | 68 copies per reaction | 6541 copies per reaction | 2% | 3% | 1% | 2% | 2% | 0.7 mm | 0.9 mm | 1.2 mm | 2 | 3 | 1
6 | Cc1c2c(oc(=O)c1CC(=O)NCC(O)CO)C=CC1C=COC21 (centres unmarked) [IIM, N-(2,3-dihydroxypropyl)-2-{13-methyl-11-oxo-3,10-dioxatricyclo[7.4.0.0^{2,6}]trideca-1(9),4,7,12-tetraen-12-yl}acetamide] | 524 copies per reaction | 0 copies per reaction | 0 copies per reaction | 54 copies per reaction | 8542 copies per reaction | 0% | 0% | 0% | 1% | 5% | 0.5 mm | 0.9 mm | 0.8 mm | 0 | 0 | 0
7 | Cc1c2c(oc(=O)c1CC(=O)NCC(O)CO)C=CC1C(n3cccc3)=COC21 (centres unmarked) [IIN, N-(2,3-dihydroxypropyl)-2-[13-methyl-11-oxo-5-(1H-pyrrol-1-yl)-3,10-dioxatricyclo[7.4.0.0^{2,6}]trideca-1(9),4,7,12-tetraen-12-yl]acetamide] | 598 copies per reaction | 0 copies per reaction | 0 copies per reaction | 98 copies per reaction | 9654 copies per reaction | 3% | 0% | 0% | 1% | 7% | 1.5 mm | 1.5 mm | 2.5 mm | 3 | 0 | 0
8 | Cc1nc(N2CCN(C3CCCCC3)CC2)ncc1C(=O)N1CC2CC(O)C(O)CC2C1 (centres unmarked) [IIIF, 2-{[2-(4-cyclohexylpiperazin-1-yl)-4-methylpyrimidin-5-yl]carbonyl}-octahydro-1H-isoindole-5,6-diol] | 658 copies per reaction | 5 copies per reaction | 4 copies per reaction | 68 copies per reaction | 3654 copies per reaction | 0% | 0% | 0% | 1% | 5% | 1.5 mm | 1.5 mm | 2.5 mm | 0 | 0 | 0
